Experiments:
[1] = tested on: BJA-B K20 cells; test: Feeding of free sialic acids to BJA-B K20 cells, PToV probes, flow cytometry; assay type: cell-based, human; conditions: 1 mM, three days; PToV with active esterase
[2] = target: bovine coronavirus hemagglutinin-esterase (BCoV-Mebus-Fc, esterase inactivated) (Bovine coronavirus, UniProt P15776, S40A); test: Sialoglycan microarray binding of BCoV-Mebus-Fc (esterase inactive); conditions: without esterase treatment (FIG. 3A)

| SMILES | resistance of cell surface sialic acid to virus-hemagglutinin-esterase activity [1] | binding of BCoV on glycan microarray [2] |
| --- | --- | --- |
| CC(=O)N[C@H]1[C@H]([C@H](O)[C@H](O)COC(C)=O)OC(O)(C(=O)O)C[C@@H]1O (stereo partly shown) [Neu5,9Ac2, 9-O-acetyl-N-acetylneuraminic acid] | only Neu5Ac9NAc-fed ones were resistant |  |
| CC(=O)N[C@H]1[C@H]([C@H](O)[C@H](O)COC(C)=O)O[C@@](O[C@H]2[C@@H](O)[C@@H](CO)O[C@@H](O[C@H]3[C@H](O)[C@@H](O)[C@H](OCCCN)O[C@@H]3CO)[C@@H]2O)(C(=O)O)C[C@@H]1O [Neu5,9Ac2α3Galβ4GlcβProNH2] |  | prefer binding |
| CC(=O)NC[C@@H](O)[C@@H](O)[C@@H]1OC(O)(C(=O)O)C[C@H](O)[C@H]1NC(C)=O (stereo partly drawn) [Neu5Ac9NAc, 5,9-Diacetamido-3,5,9-Trideoxy-D-glycero-D-galacto-2-nonulopyranosylonic Acid] | resistant to virus-hemagglutinin-esterase activity |  |
| CC(=O)NC[C@@H](O)[C@@H](O)[C@@H]1O[C@@](O[C@H]2[C@@H](O)[C@@H](CO)O[C@@H](O[C@H]3[C@H](O)[C@@H](O)[C@H](OCCCN)O[C@@H]3CO)[C@@H]2O)(C(=O)O)C[C@H](O)[C@H]1NC(C)=O [Neu5Ac9NAcα3Galβ4GlcβProNH2, 3-Aminopropyl O-(5,9-Diacetamido-3,5,9-trideoxy-D-glycero-α-D-galacto-2-nonulopyranosylonic acid)-(2→3)-O-β-D-galactopyranosyl-(1→4)-β-D-glucopyranoside] |  | prefer binding |

From US12162901B2, “N-acetylated sialic acids and related sialosides” (priority 2016, dated 2024)
